Literature values in PMC10709440, “High-throughput ligand profile characterization in novel cell lines expressing seven heterologous insect olfactory receptors for the detection of volatile plant biomarkers” (Scientific Reports, 2023).

Test system: OR13a
Design: method as in earlier work
Conditions: DoOR database value; ref DoOR; cited from earlier work

Compound: CC(=O)CCC=C(C)C [6-methyl-5-hepten-2-one]
- OR13a DoOR response: 0.44
